# Reference: ChEMBL document CHEMBL1201862, “PubChem BioAssay data set” (2004)
# Where a name gives a salt, the structure may show the parent alone. Activity calls are given as the source filed them.
# Assays:
# SUMO-activating enzyme [1] = molecular target: T1, SUMO-activating enzyme (Homo sapiens, UniProt Q9UBT2); experiment: blockers of SAE1/SAE2–UBC9 SUMO transfer – biochemical, HTRF, uHTS, primary screen (AID 2006); format: protein-complex assay
# SUMO-activating enzyme [2] = molecular target: T1, SUMO-activating enzyme; experiment: blockers of UBC9-mediated SUMO conjugation – biochemical, AlphaScreen, SUMOylation inhibitor project, confirmation (AID 2018); format: functional
# [3] = microbe, parasite or virus in culture; format: functional; conditions: Mycobacterium tuberculosis
# [4] = Luminescence Cell-Based Dose Response to Identify Activators of Luciferase Translation or Activity in H4-C Neuroglioblastoma Cells. [Related pubchem assays: 1829 (Project Summary), 1814 (Primary HTS)]; format: functional
# [5] = viability loss in HeLa cells – cytotoxicity control for MgcRacGAP inhibitor project, dose response (AID 624300); format: functional
# [6] = molecular target: DNA repair protein RAD52 homolog (Homo sapiens, UniProt P43351); format: functional, biochemical
# [7] = molecular target: T2, Apoptotic protease-activating factor 1 (Homo sapiens, UniProt O14727); format: functional
# T2 sequence (O14727 whole entry): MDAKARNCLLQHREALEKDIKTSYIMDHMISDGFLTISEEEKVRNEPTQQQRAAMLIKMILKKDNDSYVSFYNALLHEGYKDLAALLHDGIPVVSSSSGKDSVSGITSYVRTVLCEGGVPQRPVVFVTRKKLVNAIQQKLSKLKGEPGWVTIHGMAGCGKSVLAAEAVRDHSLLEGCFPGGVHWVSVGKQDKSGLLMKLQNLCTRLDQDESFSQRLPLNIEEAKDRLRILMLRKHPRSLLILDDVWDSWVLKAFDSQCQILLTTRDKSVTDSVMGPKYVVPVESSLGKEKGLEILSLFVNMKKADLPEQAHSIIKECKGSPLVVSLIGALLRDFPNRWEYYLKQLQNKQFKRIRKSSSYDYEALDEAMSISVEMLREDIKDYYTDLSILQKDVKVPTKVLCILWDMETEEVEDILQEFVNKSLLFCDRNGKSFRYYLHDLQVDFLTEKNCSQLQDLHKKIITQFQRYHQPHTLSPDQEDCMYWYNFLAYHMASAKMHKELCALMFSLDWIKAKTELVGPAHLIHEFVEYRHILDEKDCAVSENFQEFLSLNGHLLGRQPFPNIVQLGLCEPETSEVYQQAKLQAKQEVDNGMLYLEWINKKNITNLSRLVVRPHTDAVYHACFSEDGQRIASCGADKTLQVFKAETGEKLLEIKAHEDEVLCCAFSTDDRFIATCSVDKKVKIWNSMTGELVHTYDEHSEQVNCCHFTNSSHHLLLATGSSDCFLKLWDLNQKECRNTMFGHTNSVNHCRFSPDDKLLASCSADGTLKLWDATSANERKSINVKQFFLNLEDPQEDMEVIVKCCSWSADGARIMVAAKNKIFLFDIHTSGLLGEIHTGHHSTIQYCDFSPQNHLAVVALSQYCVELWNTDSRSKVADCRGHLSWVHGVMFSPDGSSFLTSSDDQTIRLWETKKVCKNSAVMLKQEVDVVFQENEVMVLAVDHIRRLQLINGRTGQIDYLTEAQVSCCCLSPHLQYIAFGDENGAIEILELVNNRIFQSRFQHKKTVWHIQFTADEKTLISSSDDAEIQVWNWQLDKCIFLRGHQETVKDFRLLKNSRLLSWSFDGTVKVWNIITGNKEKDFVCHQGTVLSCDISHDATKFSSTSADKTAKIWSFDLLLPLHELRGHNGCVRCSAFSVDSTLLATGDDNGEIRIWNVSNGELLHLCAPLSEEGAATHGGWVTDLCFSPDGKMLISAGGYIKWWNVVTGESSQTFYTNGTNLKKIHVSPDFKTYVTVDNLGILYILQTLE
# [8] = molecular target: Polyadenylate-binding protein 1 (Homo sapiens, UniProt P11940); experiment: MLLE binding blockers, Cy5 peptide tracer – biochemical, fluorescence polarization, Cy5-PAM2 peptide, secondary, miRNA deadenylation inhibitor project, dose response (AID 602260); format: functional; conditions: read-out: IC50_Mean
# [9] = molecular target: Serine/threonine-protein kinase PAK 1 (Homo sapiens, UniProt Q13153); format: functional
# [10] = molecular target: Proto-oncogene tyrosine-protein kinase ROS (Homo sapiens, UniProt P08922); format: functional;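 also: ROS1 tested as one member of a kinome-wide kinase panel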
# [11] = molecular target: Receptor tyrosine-protein kinase erbB-4 (Homo sapiens, UniProt Q15303); format: functional;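 also: ERBB4 member of a kinome-wide kinase profiling panel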
# [12] = molecular target: Platelet-derived growth factor receptor alpha (Homo sapiens, UniProt P16234); experiment: Navigating the Kinome. Panel member name: PDGFRA; format: functional
# [13] = molecular target: Tyrosine-protein kinase SYK (Homo sapiens, UniProt P43405); format: functional
# Activated CDC42 kinase 1 = Activated CDC42 kinase 1 (Homo sapiens, UniProt Q07912); experiment: Navigating the Kinome. Panel member name: ACK1; format: functional
# [14] = molecular target: Mast/stem cell growth factor receptor Kit (Homo sapiens, UniProt P10721); format: functional;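 also: KIT entry within a kinase panel assay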
# [15] = molecular target: cAMP-dependent protein kinase catalytic subunit PRKX (Homo sapiens, UniProt P51817); format: functional
# [16] = molecular target: Dual specificity protein kinase CLK4 (Homo sapiens, UniProt Q9HAZ1); format: functional
# [17] = molecular target: Mitogen-activated protein kinase 14 (Homo sapiens, UniProt Q16539); format: functional;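 also: part of a kinome-wide panel, MAPK14 entry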
# [18] = molecular target: Serine/threonine-protein kinase pim-2 (Homo sapiens, UniProt Q9P1W9); format: functional;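 also: value comes from a broad kinase panel profiling study in which PIM2 was one of the panel members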
# [19] = molecular target: Serine/threonine-protein kinase Nek4 (Homo sapiens, UniProt P51957); format: functional
# [20] = molecular target: Serine/threonine-protein kinase Nek2 (Homo sapiens, UniProt P51955); format: functional
# [21] = molecular target: Protein kinase C zeta type (Homo sapiens, UniProt Q05513); format: functional;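 also: measured as one member of a broad kinase profiling panel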
# [22] = molecular target: Cyclin-dependent kinase 8 (Homo sapiens, UniProt P49336); experiment: Navigating the Kinome. Panel member name: CDK8; format: functional
# [23] = molecular target: cAMP-dependent protein kinase catalytic subunit alpha (Homo sapiens, UniProt P17612); format: functional
# [24] = molecular target: Tyrosine-protein kinase Fyn (Homo sapiens, UniProt P06241); format: functional
# [25] = molecular target: Lymphokine-activated killer T-cell-originated protein kinase (Homo sapiens, UniProt Q96KB5); format: functional;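 also: value comes from a kinase panel screen in which TOPK was one of the panel members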
# [26] = molecular target: Tyrosine-protein kinase Srms (Homo sapiens, UniProt Q9H3Y6); format: functional;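 also: SRMS measured as one member of a kinome-wide kinase profiling panel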
# T1 sequence (Q9UBE0 whole entry): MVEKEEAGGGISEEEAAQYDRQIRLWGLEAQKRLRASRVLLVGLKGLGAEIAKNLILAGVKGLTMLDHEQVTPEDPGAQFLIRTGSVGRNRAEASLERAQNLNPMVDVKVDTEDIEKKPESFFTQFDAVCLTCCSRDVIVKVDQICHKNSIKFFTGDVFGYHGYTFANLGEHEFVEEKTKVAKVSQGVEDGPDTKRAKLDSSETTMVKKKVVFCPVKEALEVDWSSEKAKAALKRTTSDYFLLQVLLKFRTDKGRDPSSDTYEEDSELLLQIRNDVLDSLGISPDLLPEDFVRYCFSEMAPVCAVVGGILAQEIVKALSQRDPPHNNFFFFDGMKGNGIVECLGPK
# T1 sequence (Q9UBT2 whole entry): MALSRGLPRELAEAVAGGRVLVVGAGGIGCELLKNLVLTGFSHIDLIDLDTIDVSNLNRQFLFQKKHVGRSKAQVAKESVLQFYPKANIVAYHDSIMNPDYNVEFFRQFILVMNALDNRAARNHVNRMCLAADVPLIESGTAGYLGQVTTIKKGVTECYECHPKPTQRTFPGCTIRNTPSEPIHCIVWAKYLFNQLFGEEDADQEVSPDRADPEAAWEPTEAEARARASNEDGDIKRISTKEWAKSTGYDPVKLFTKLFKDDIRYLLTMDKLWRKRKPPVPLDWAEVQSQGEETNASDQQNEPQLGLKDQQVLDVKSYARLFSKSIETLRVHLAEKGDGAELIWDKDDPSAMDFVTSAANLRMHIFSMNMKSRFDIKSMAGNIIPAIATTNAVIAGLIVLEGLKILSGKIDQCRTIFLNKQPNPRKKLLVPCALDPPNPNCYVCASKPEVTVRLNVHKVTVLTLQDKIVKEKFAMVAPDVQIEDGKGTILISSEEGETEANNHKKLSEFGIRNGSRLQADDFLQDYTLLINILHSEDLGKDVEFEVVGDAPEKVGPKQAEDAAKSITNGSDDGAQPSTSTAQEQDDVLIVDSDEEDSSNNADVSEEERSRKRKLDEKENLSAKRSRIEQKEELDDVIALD
# Lymphokine-activated killer T-cell-originated protein kinase, sequence (Q96KB5 whole entry): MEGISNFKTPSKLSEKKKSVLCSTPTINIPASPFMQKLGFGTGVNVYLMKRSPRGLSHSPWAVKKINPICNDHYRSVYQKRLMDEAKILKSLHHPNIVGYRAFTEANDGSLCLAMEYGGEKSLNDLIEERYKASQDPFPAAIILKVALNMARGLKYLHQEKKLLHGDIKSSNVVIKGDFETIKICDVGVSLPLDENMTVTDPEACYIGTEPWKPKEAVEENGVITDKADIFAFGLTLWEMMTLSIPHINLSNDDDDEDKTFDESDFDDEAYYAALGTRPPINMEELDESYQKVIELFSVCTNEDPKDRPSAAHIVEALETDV
# Dual specificity protein kinase CLK4, sequence (Q9HAZ1 whole entry): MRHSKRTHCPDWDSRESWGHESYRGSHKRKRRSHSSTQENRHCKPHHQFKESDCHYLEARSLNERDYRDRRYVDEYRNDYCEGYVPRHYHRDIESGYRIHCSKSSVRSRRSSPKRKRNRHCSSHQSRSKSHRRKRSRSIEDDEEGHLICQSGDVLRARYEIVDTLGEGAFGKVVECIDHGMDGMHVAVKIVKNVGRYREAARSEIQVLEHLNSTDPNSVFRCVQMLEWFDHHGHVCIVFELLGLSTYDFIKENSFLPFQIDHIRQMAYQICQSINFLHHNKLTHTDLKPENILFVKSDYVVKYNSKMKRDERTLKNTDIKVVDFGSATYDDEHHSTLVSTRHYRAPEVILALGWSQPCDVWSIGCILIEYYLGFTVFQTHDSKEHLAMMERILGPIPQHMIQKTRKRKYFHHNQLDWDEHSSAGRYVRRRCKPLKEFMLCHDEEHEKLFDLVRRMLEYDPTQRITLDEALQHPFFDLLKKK
# Polyadenylate-binding protein 1, sequence (P11940 whole entry): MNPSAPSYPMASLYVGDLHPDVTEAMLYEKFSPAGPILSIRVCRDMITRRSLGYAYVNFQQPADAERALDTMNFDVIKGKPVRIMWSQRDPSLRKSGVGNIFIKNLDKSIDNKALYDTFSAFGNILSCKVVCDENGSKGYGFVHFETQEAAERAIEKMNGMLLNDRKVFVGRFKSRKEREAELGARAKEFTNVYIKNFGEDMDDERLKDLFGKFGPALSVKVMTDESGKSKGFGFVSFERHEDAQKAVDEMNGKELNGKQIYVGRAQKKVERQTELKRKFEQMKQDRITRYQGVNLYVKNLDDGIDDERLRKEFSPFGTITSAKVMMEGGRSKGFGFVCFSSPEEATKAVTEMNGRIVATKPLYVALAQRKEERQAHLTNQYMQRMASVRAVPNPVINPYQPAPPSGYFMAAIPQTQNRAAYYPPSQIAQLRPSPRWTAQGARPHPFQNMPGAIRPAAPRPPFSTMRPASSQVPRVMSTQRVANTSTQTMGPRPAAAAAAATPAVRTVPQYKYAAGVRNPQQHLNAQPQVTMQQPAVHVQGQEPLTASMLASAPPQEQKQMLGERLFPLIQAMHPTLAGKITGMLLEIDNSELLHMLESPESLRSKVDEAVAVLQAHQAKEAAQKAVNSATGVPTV
# Serine/threonine-protein kinase pim-2, sequence (Q9P1W9 whole entry): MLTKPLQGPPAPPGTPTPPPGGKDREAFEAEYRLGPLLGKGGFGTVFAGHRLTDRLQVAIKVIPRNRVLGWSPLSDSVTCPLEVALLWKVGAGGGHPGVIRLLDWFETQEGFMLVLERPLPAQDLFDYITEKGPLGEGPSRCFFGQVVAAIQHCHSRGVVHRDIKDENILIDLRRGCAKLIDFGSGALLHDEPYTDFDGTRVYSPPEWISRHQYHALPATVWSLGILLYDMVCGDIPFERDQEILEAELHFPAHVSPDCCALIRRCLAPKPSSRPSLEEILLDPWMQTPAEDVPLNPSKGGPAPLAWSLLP
# Platelet-derived growth factor receptor alpha, sequence (P16234 whole entry): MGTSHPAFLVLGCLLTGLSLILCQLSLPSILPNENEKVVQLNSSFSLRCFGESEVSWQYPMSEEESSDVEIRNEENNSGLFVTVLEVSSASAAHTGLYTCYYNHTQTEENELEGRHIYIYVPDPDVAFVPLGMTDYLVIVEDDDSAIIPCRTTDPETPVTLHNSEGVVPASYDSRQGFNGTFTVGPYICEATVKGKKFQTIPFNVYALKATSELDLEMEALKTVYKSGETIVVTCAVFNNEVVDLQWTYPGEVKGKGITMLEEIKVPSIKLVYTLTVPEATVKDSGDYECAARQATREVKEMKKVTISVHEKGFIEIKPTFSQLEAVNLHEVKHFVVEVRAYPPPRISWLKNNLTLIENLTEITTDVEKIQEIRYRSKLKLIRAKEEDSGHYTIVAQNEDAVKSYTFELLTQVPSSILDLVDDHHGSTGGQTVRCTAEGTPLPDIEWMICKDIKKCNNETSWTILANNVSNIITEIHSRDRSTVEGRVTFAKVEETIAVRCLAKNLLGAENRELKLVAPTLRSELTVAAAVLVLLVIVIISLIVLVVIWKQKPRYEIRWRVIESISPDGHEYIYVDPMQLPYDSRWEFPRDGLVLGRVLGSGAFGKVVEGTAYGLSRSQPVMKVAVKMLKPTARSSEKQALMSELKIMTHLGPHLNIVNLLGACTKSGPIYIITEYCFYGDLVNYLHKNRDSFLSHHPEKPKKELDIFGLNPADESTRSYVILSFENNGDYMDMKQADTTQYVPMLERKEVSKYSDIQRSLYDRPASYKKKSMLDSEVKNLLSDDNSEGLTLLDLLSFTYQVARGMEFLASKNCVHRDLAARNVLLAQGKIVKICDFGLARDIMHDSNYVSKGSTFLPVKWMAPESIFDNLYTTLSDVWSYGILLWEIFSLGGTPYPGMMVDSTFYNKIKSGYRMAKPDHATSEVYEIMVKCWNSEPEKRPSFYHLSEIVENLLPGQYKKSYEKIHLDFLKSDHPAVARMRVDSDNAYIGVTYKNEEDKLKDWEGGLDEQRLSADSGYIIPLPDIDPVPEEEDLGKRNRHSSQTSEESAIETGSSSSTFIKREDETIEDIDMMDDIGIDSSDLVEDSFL
# Cyclin-dependent kinase 8, sequence (P49336 whole entry): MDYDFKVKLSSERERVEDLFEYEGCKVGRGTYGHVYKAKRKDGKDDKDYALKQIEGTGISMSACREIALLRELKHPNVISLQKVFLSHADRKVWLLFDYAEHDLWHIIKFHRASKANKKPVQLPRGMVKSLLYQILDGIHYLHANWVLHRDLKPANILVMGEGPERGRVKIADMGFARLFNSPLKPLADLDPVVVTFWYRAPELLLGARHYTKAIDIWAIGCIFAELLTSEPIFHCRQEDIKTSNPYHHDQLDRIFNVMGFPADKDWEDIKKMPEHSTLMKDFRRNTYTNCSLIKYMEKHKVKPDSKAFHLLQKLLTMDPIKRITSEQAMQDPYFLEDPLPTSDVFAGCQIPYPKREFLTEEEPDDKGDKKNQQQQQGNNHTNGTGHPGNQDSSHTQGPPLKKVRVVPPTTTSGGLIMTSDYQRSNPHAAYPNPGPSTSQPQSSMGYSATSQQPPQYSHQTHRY
# Serine/threonine-protein kinase PAK 1, sequence (Q13153 whole entry): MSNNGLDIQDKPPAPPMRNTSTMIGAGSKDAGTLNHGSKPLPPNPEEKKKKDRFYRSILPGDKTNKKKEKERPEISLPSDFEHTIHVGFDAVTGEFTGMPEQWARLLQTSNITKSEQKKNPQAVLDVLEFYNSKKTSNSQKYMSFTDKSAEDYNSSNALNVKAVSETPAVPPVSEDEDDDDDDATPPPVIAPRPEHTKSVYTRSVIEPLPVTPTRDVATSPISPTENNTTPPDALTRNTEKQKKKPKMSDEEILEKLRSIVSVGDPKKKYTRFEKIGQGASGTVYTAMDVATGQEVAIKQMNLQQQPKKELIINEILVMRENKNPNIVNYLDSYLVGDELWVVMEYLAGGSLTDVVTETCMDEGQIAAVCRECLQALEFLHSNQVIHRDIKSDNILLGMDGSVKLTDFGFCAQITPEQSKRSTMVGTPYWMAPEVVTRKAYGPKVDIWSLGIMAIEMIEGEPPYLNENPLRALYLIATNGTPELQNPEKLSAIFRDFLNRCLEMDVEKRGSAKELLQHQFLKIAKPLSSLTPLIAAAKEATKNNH
smiles,measurement,setting,value
CCC(C)n1c(NC(=O)c2ccccc2)c(C#N)c2nc3ccccc3nc21 (configuration not stated),IC50,SUMO-activating enzyme [1],8.4 µM (active)
same,IC50,SUMO-activating enzyme [2],3.51 µM (active)
same,CC50,[3],28.1 µM (active)
CCN1/C(=C\c2ccc3ccccc3[n+]2CC)Sc2cc(C)ccc21,EC50,[4],> 12 µM (not active)
same,CC50,[5],14.4 µM (active)
CCCCCCCCCCOC(=O)C[n+]1c(COc2ccc(C)cc2)n(C)c2ccccc21,AC50,[6],9.47 µM (active)
same,IC50,[7],10.8 µM (active)
CC[C@@H](CO)NC(=O)[C@@H]1C=C2c3cccc4c3c(cn4C)C[C@H]2N(C)C1 [METHYSERGIDE MALEATE],IC50,[8],> 66 µM (inactive)
CN1CCN(c2nc(C3=C(c4c[nH]c5ccccc45)C(=O)NC3=O)c3ccccc3n2)CC1 [SOTRASTAURIN],Ki,[9],> 10 µM (inactive)
same,Ki,[10],> 2 µM (inactive)
same,Ki,[11],> 3.98 µM (inactive)
same,Ki,[12],> 2.51 µM (inactive)
same,Ki,[13],> 1.58 µM (inactive)
same,Ki,Activated CDC42 kinase 1,> 3.98 µM (inactive)
same,Ki,[14],> 1.26 µM (inactive)
same,Ki,[15],> 2.51 µM (inactive)
same,Ki,[16],> 5.01 µM (inactive)
same,Ki,[17],> 3.98 µM (inactive)
same,Ki,[18],1.58 nM (active)
same,Ki,[19],> 6.31 µM (inactive)
same,Ki,[20],> 6.31 µM (inactive)
same,Ki,[21],63.1 nM (active)
same,Ki,[22],> 3.98 µM (inactive)
same,Ki,[23],> 1.26 µM (inactive)
same,Ki,[24],> 3.16 µM (inactive)
same,Ki,[25],> 10 µM (inactive)
same,Ki,[26],> 1.58 µM (inactive)
